Results reported in patent US20070117776A1, “Low Dose Therapy Of DNA Methylation Inhibitors” (priority 2005, published 2007).

What was measured:
[1] = system: intermediate and high-risk MDS and CMML; assay: Randomized low dose decitabine schedules in patients with hematological disorders; type: in vivo, human
Method: Patients with intermediate and high-risk MDS and CMML were randomized to one of three decitabine schedules: (1) 20 mg/m^2 infused intravenously over 1 hour, once daily, for five days; (2) 10 mg/m^2, infused intravenously over one hour, once daily, for ten days; (3) 10 mg/m^2, injected subcutaneously twice a day, for five days.
Decitabine was supplied as a lyophilized powder, 50 mg in 20 mL glass vials, for reconstitution with 10 mL sterile water (Supergen, Inc., Dublin Calif., through Pharmachemie B.V., Haarlem, The Netherlands). The reconstituted stock solution contained 5 mg/mL decitabine, 6.8 mg KH2PO4, and approximately 1.1 mg/mL NaOH. The reconstituted solution was further diluted for intravenous infusion or subcutaneous injection with pharmaceutically acceptable cold infusion fluids (physiological saline, glucose-saline, lactated Ringer's solution). The time delay between preparation of the infusion/injection solution was kept as short as practicable, with refrigerated storage prior to administration not to exceed 4-5 hours.
Patients received one course of treatment (as defined above) every 28 days. […] Patients were allowed 40,000 units of erythropoietin weekly for anemia, or GCSF if needed.
The age of 92 treated patients ranged from 31-90 years (median: 65, with 66% of patients being older than 60); according to IPSS prognostic scores, 25% of patients were classified as intermediate-1, 38% as intermediate-2, 19% as high risk, and 17% as having chronic myelomonocytic leukemia (CMML). […] Twenty-seven patients had had prior erythropoietin; 17 had had prior GCSF, and 22 had had other prior therapies.

[2] = Maximum degradation in the infusion estimated for selected infusion schedules; type: physicochemical; conditions: 0.1-1 mg/mL; for Average degradation rate: estimate assuming linearity
Method: Table 3 summarizes the maximum degradation estimated using a series of infusion schedules (S1 through S7 as denoted in the table) selected to establish degradation limits and acceptable shelf life of the diluted solution. The average degradation rate used for calculations is based on the assumption that degradation in solutions is linear and the slope between the initial and the terminal time point is considered to be worst case. If the solution is prepared appropriately and used immediately, degradation would be minimal. It is recommended that a diluted infusion should not be stored longer than seven hours in a refrigerator for a three hour infusion or longer than 10 hours in a refrigerator for a two hour infusion in order to stay within the 10% maximum limit allowed for degradation.

[3] = all three schedules, 92 treated patients

For `Nc1ncn([C@H]2C[C@H](O)[C@@H](CO)O2)c(=O)n1` [Decitabine, 4-amino-1-(2-deoxy-β-D-erythro-pentofuranosyl)-1,3,5-triazin-2(1H)-one], which comparison of schedules ([1]; 5-day IV arm versus the other arms, after 55 patients were randomized) is on record?
The comparison of schedules was “statistically superior”.

And the “complete remission (patients with CR/patients treated)” value ([1]; 5-day IV courses: 20 mg/m^2 infused intravenously over 1 hour, once daily, for five days)?
The value was 24/57.

And the “complete remission (patients with CR/patients treated)” value ([1]; 5-day subcutaneous courses: 10 mg/m^2 injected subcutaneously twice a day, for five days)?
Its value is 4/14.

What about the myelosuppression ([1]; 10-day IV cohort (10 mg/m^2 over one hour, once daily, ten days) compared with the other schedules) of the same compound?
The myelosuppression was “more myelosuppression”.

What about the “complete remission (patients with CR/patients treated)” value ([1]; 10-day IV courses: 10 mg/m^2 infused intravenously over one hour, once daily, for ten days) of the same compound?
The value was 4/17.

And the “CB combined with bone marrow CR” value [1, 3]?
The value was “Thirteen”.

What about the “Partial remission (PR)” value [1, 3] of the same compound?
The value was “seven”.

What about the “clinical benefit (CB)” value [1, 3] of the same compound?
The value was “Sixteen”.

And the “complete remission (CR)” value [1, 3]?
Its value is 32 patients.

What about the “number of treatment courses in patients who achieved CR (median)” value ([1]; one course every 28 days) of the same compound?
Its value is 3.

And the “number of treatment courses in patients who achieved CR (range)” value ([1]; one course every 28 days)?
The value was “one to six”.

What about the “patients who showed a response (overall)” value ([1]; patients who received at least one course of treatment) of the same compound?
Its value is 76%.

What about the Average degradation rate ([2]; @ 4° C.) of the same compound?
The Average degradation rate was 0.40 %/hr.

What about the Average degradation rate ([2]; @ Room Temperature) of the same compound?
The Average degradation rate was 2.44 %/hr.

And the Maximum degradation ([2]; S1 (6 hr stored @4° C. + 3 hr @ RT during infusion))?
Its Maximum degradation is 9.72 % peak area.

What about the Maximum degradation ([2]; S2 (7 hr stored @4° C. + 3 hr @ RT during infusion)) of the same compound?
The Maximum degradation was 10.12 % peak area.

And the Maximum degradation ([2]; S3 (7 hr stored @4° C. + 2 hr @ RT during infusion))?
The Maximum degradation was 7.68 % peak area.

And the Maximum degradation ([2]; S4 (8 hr stored @4° C. + 3 hr @ RT during infusion))?
Its Maximum degradation is 10.52 % peak area.

And the Maximum degradation ([2]; S5 (8 hr stored @4° C. + 2 hr @ RT during infusion))?
Its Maximum degradation is 8.08 % peak area.

And the Maximum degradation ([2]; S6 (9 hr stored @4° C. + 2 hr @ RT during infusion))?
Its Maximum degradation is 8.48 % peak area.

What about the Maximum degradation ([2]; S7 (10 hr stored @4° C. + 2 hr @ RT during infusion)) of the same compound?
Its Maximum degradation is 8.88 % peak area.
